We go through 62 compounds from patent US11603368B2, “Fused thiophene derivatives and their uses” (ENYO PHARMA, priority 2018, dated 2023).

Broadly, the IC50 is the concentration that gives 50% inhibition. Lower therefore signals greater potency in that assay.

For the first assay, the system named is H1N1 (influenza A/New Caledonia/20/99). Briefly: Antiviral effect on A549 cells infected with H1N1. The conditions noted are these: Human A549 cells, MOI of 0.1, 48 h post-infection, MUNANA hydrolysis readout. In kind it is cell-based, H1N1 A/New Caledonia/20/99 virus. Here is the method:
The antiviral effect of the compounds of the invention has been tested on A549 cell lines infected with H1N1 (influenza A/New Caledonia/20/99).
Human A549 cells (80,000 cells/well in a 96 well plate) were treated with a range of concentration of test molecules and immediately infected by H1N1 A/New Caledonia/20/99 virus (clinical isolate) at MOI of 0.1 in DMEM/1% Penicillin/streptomycin supplemented with 0.25 μg/ml TPCK trypsin (Sigma) and incubated at 37° C. in 5% CO2. 48 h post-infection, supernatants (25 μl) were collected and transferred into a 96-well black flat-bottom plate, mixed with 25 μl PBS with Ca++/Mg++(Thermo Fisher) and 50 μl of 2′-(4-Methylumbelliferyl)-α-D-N-acetylneuraminic acid sodium salt hydrate stock-solution (20 μM, MUNANA, Sigma). Plates were incubated 1 h at 37° C. and reaction is stopped by adding 100 μl of Stop Solution (glycine 0.1 M pH10.7/25% ethanol). The amount of fluorescent product released by MUNANA hydrolysis (4-MU) was measured in a Tecan spectrophotometer with excitation and emission wavelengths of 365 and 450 nm respectively.
Compound `O=C(Nc1sc2c(c1C(=O)O)C1CCC2C1)c1ccccc1` (centres unmarked) [#28] returned an IC50 of 1270 nM.
Compound `O=C(Nc1sc2c(c1C(=O)O)CCC(c1ccccc1)C2)c1ccccc1` (centres unmarked) [#47A] registered an IC50 of 40 nM.
Regarding `O=C(Nc1sc2c(c1C(=O)O)CCC(c1ccccc1)C2)c1ccccc1` (centres unmarked) [#47B], the IC50 turned out to be 70 nM.
Same read-out and setting: under `CC(C)(C)C1CCc2c(sc(NC(=O)c3ccccc3)c2C(=O)O)C1` (centres unmarked) [#66] stands 69.3 nM.
In turn, `CC(C)(C)C1CCc2c(sc(NC(=O)c3ccccc3)c2C(=O)O)C1` (centres unmarked) [#67] came in with an IC50 of 91.7 nM.
`CC(C)(C)C1CCc2c(sc(NC(=O)c3ccccc3F)c2C(=O)O)C1` (centres unmarked) [#73] had an IC50 of 180 nM.
In the case of `CC1CCCc2sc(NC(=O)c3ccccc3)c(C(=O)O)c21` (centres unmarked) [#79], the IC50 worked out at 292 nM.
Same read-out and setting: under `Cc1ccccc1C(=O)Nc1sc2c(c1C(=O)O)CCC(C(C)(C)C)C2` (centres unmarked) [#87] stands 445 nM; under `CC1CCCc2sc(NC(=O)c3ccccc3)c(C(=O)O)c21` (centres unmarked) [#88], 547 nM.
`CC(C)(C)C1CCc2c(sc(NC(=O)c3ccccc3C(F)(F)F)c2C(=O)O)C1` (centres unmarked) [#100] showed an IC50 of 873 nM.
`CC(C)(C)C1CCc2c(sc(NC(=O)c3ccccc3C(F)(F)F)c2C(=O)O)C1` (centres unmarked) [#109] gave an IC50 of 1200 nM.

The same assay, now with this note: Influenza A virus, H1N1, A549, 48 h, Human A549 cells, MOI of 0.1, 48 h post-infection, MUNANA hydrolysis readout.
The compound `COc1cccc(C(=O)Nc2sc3c(c2C(=O)O)CCC(C(C)(C)C)C3)c1` (centres unmarked) [#2] showed an IC50 of 70 nM.
For `COc1ccc(C(=O)Nc2sc3c(c2C(=O)O)CCC(C(C)(C)C)C3)cc1OC` (centres unmarked) [#3], the IC50 is 55 nM.
Still for that read-out and setting: then `COc1cc(C(=O)Nc2sc3c(c2C(=O)O)CCC(C(C)(C)C)C3)cc(OC)c1OC` (centres unmarked) [#4], with 1070 nM.
In turn, `COc1ccc(C(=O)Nc2sc3c(c2C(=O)O)CCC(C(C)(C)C)C3)c(F)c1` (centres unmarked) [#5] returned an IC50 of 60 nM.
For `COc1ccc(C(=O)Nc2sc3c(c2C(=O)O)CCC(C(C)(C)C)C3)c(F)c1F` (centres unmarked) [#6], the IC50 was found to be 90 nM.
Still for that read-out and setting: then `CC(C)(C)C1CCc2c(sc(NC(=O)c3ccc(OC(F)F)cc3)c2C(=O)O)C1` (centres unmarked) [#7], with 34.6 nM; and `CC(C)(C)C1CCc2c(sc(NC(=O)c3ccc(OC(F)(F)F)cc3)c2C(=O)O)C1` (centres unmarked) [#8], with 38.5 nM.
`CC(C)(C)C1CCc2c(sc(NC(=O)c3ccc(N4CCOCC4)cc3)c2C(=O)O)C1` (centres unmarked) [#9] registered an IC50 of 70 nM.
Same read-out and setting: under `CC(C)(C)OC(=O)NCCCOc1ccc(C(=O)Nc2sc3c(c2C(=O)O)CCC(C(C)(C)C)C3)cc1` (centres unmarked) [#11] stands 140 nM.
On the same count and under the same terms, under `CC(C)(C)C1CCc2c(sc(NC(=O)c3ccc(OCCO)cc3)c2C(=O)O)C1` (centres unmarked) [#12] stands 450 nM.
Turning to `Cc1ccccc1C(=O)Nc1sc2c(c1C(=O)O)CCC(c1ccccc1)C2` (centres unmarked) [#45], it took 338 nM to reach half-maximal inhibition (IC50).
With `COc1ccc(C(=O)Nc2sc3c(c2C(=O)O)CCC(c2ccccc2)C3)cc1OC` (centres unmarked) [#48], the IC50 was 90 nM.
Compound `O=C(Nc1sc2c(c1C(=O)O)CCC(c1ccccc1)C2)c1ccc(O)cc1` (centres unmarked) [#49] had an IC50 of 410 nM.
Same read-out and setting: under `O=C(Nc1sc2c(c1C(=O)O)CCC(c1ccccc1)C2)c1ccc(OCCO)cc1` (centres unmarked) [#50] stands 90 nM.
`COCCOc1ccc(C(=O)Nc2sc3c(c2C(=O)O)CCC(c2ccccc2)C3)cc1` (centres unmarked) [#51]: the IC50 came out at 38 nM.
Same read-out and setting: then `Cc1cc(F)ccc1N1CCc2c(sc(NC(=O)c3ccccc3)c2C(=O)O)C1` [#53], with 140 nM; and `COc1ccc(C(=O)Nc2sc3c(c2C(=O)O)CCN(c2ccc(F)cc2C)C3)c(F)c1` [#55], with 410 nM.
Same read-out and setting: then `O=C(Nc1sc2c(c1C(=O)O)CCN(c1ccc(F)cc1F)C2)c1ccccc1` [#56], with 150 nM.
`Cc1ccccc1N1CCc2c(sc(NC(=O)c3ccccc3)c2C(=O)O)C1` [#57]: the IC50 was found to be 210 nM.
Take `CC(C)(C)C1CCc2c(sc(NC(=O)c3ccc(F)cc3)c2C(=O)O)C1` (centres unmarked) [#68]: inhibition was half-maximal at 120 nM (IC50).
`CC1CCCc2sc(NC(=O)c3ccc(N4CCOCC4)cc3)c(C(=O)O)c21` (centres unmarked) [#70] registered an IC50 of 146 nM.
Still for that read-out and setting: under `CC(C)(C)C1CCc2c(sc(NC(=O)c3ccccn3)c2C(=O)O)C1` (centres unmarked) [#72] stands 170 nM; under `CC1CCCc2sc(NC(=O)c3ccc(OC(F)F)cc3)c(C(=O)O)c21` (centres unmarked) [#75], 210 nM; under `COc1ccc(C(=O)Nc2sc3c(c2C(=O)O)C(C)CCC3)c(F)c1` (centres unmarked) [#76], 218 nM.
Compound `O=C(Nc1sc2c(c1C(=O)O)CCCC2)c1ccccc1` [#77] displayed an IC50 of 260 nM.
In turn, `COc1ccc(C(=O)Nc2sc3c(c2C(=O)O)C(C)CCC3)cc1OC` (centres unmarked) [#81] had an IC50 of 339 nM.
As to `CC(C)(C)C1CCc2c(sc(NC(=O)c3cccc(F)c3)c2C(=O)O)C1` (centres unmarked) [#83], the IC50 was 380 nM.
The same measure, in the same setting: then `O=C(Nc1sc2c(c1C(=O)O)CCCCC2)c1ccccc1` [#84], with 400 nM; and `Cc1ccccc1C(=O)Nc1sc2c(c1C(=O)O)CCC(C)C2` (centres unmarked) [#86], with 410 nM.
On the same count and under the same terms, under `CC1CCCCC1C(=O)Nc1sc2c(c1C(=O)O)CCC(C(C)(C)C)C2` (centres unmarked) [#89] stands 590 nM; under `COc1ccc(C(=O)Nc2sc3c(c2C(=O)O)CCC(C(C)(C)C)C3)nc1` (centres unmarked) [#91], 620 nM.
`O=C(Nc1sc2c(c1C(=O)O)CCN(c1ccc(C(F)(F)F)cc1)C2)c1ccccc1` [#92]: the IC50 is 660 nM.
In turn, `CC(=O)Nc1ccc(C(=O)Nc2sc3c(c2C(=O)O)CCC(C(C)(C)C)C3)cc1` (centres unmarked) [#93] registered an IC50 of 660 nM.
As to `Cc1ccccc1C(=O)Nc1sc2c(c1C(=O)O)CCCC2` [#95], the midpoint of inhibition, the IC50, lay at 723 nM.
The compound `CC(C)(C)C1CCc2c(sc(NC(=O)c3ccccc3C(F)(F)F)c2C(=O)O)C1` (centres unmarked) [#97] gave an IC50 of 800 nM.
Same read-out and setting: then `CC(C)(C)C1CCc2c(sc(NC(=O)c3ccc4c(c3)OC(F)(F)O4)c2C(=O)O)C1` (centres unmarked) [#99], with 830 nM; and `Cn1cc(C(=O)Nc2sc3c(c2C(=O)O)CCC(C(C)(C)C)C3)cn1` (centres unmarked) [#101], with 943 nM; and `CC1CCCc2sc(NC(=O)c3cccc(OC(F)F)c3)c(C(=O)O)c21` (centres unmarked) [#102], with 970 nM.
`COc1ccccc1C(=O)Nc1sc2c(c1C(=O)O)CCC(C(C)(C)C)C2` (centres unmarked) [#104] gave an IC50 of 1050 nM.
Regarding `CC(C)(C)C(=O)Nc1sc2c(c1C(=O)O)CCC(c1ccccc1)C2` (centres unmarked) [#106], half-maximal inhibition (IC50) required 1100 nM.
In turn, `O=C(Nc1sc2c(c1C(=O)O)C(c1ccccc1)CCC2)c1ccc(OC(F)F)cc1` (centres unmarked) [#108] showed an IC50 of 1170 nM.
As to `Cc1ccoc1C(=O)Nc1sc2c(c1C(=O)O)CCC(C(C)(C)C)C2` (centres unmarked) [#110], the IC50 came to 1200 nM.
For `Cc1ccccc1C(=O)Nc1sc2cc(C(C)(C)C)ccc2c1C(=O)O` [#111], the IC50 turned out to be 1370 nM.
Compound `COc1ccc(C(=O)Nc2sc3c(c2C(=O)O)CCN(c2ccc(F)cc2)C3)cc1OC` [#113] came in with an IC50 of 1370 nM.
As for `CC1(C)Cc2c(sc(NC(=O)c3ccccc3)c2C(=O)O)CO1` [#116], it took 1700 nM to reach half-maximal inhibition (IC50).
In the case of `Cc1cccc(C)c1C(=O)Nc1sc2c(c1C(=O)O)CCC(C(C)(C)C)C2` (centres unmarked) [#118], half-maximal inhibition (IC50) was put at 1950 nM.
Regarding `COc1ccc(C(=O)Nc2sc3c(c2C(=O)O)CC(C)(C)OC3)cc1OC` [#119], the IC50 worked out at 2200 nM.
`CC(C)(C)C1CCc2c(sc(NC(=O)N3CCCCC3)c2C(=O)O)C1` (centres unmarked) [#120] yielded an IC50 of 2270 nM.
`Cc1ccccc1C(=O)Nc1sc2c(c1C(=O)O)CCC2` [#121] displayed an IC50 of 2350 nM.
For `O=C(Nc1sc2c(c1C(=O)O)CCC(c1ccc(O)cc1)C2)c1ccccc1` (centres unmarked) [#122], the IC50 came to 2370 nM.
`CC(C)(C)C1CCc2c(sc(NC(=O)c3ccncc3)c2C(=O)O)C1` (centres unmarked) [#123] registered a half-inhibitory concentration (IC50) of 2700 nM.
